One may read the pKa as the pH at which an ionisable group is half protonated.

Experimental findings from patent US12263248B2, “Compounds and compositions for intracellular delivery of therapeutic agents” (ModernaTX, Inc., priority 2018, dated 2025) are described below.

Data set [1] in a line: Apparent (surface) pKa of the LNP formulation (TNS assay). In kind it is physicochemical. The following applies: Table 1A. The method, boiled down:
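Fluorescence of TNS probe added to LNP samples (mRNA 0.04 mg/mL) was read across 21 buffers of pH about 3-12, triplicate per pH. The inflection point of the sigmoidal fluorescence-vs-pH curve, […], gives apparent pKa; method validated in 1× PBS and Tris/sucrose buffer.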

In data set [2] the test system is luciferase (Luc) mRNA. Kind of data set: Luc expression, whole body bioluminescence after intravenous administration to mice. The conditions noted are these: for Fold increase in total body Luc Flux relative to MC3 at 6 h: Table 3A; for Fold increase in total body Luc Flux relative to MC3 at 6 h / 6 h Lipid/MC3 Avg. Luc Expression / Fold increase AUC Lipid/MC3 / AUC (h * p/s): i.v. administration; for Total Flux 3 hours / Total Flux 6 hours / Total Flux 24 hours: mice, i.v., 0.5 mg/kg, Luc mRNA; for 6 h Lipid/MC3 Avg. Luc Expression / Fold increase AUC Lipid/MC3 / AUC (h * p/s): Table 3C; for AUC (h * p/s): Luc. Type of data set: in vivo. The method, boiled down: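 Bioluminescence, read as region-of-interest total flux at 3, 6 and 24 h, followed a single 0.5 mg/kg intravenous dose of Luc mRNA-loaded nanoparticles in mice (n=6). Luciferin substrate (200 μL, 15 mg/mL in PBS) was injected intraperitoneally into CD-1 mice 15 minutes ahead of each imaging point.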

The nature of data set [3]: Encapsulation efficiency of RNA (QUANT-IT RIBOGREEN RNA assay). In kind it is physicochemical. The following applies: Table 1A. The method, boiled down: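 RiboGreen fluorescence (ex ~480, em ~520 nm) compared between intact samples and Triton X-100-lysed samples after 15 min at 37 °C in TE buffer, pH 7.5. Percent free RNA is the blank-corrected intact/disrupted ratio.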

The subject of data set [4] is luciferase (Luc) mRNA. Kind of data set: Luc expression in liver, lung, spleen and femur 6 hours after intravenous administration. Type of data set: in vivo. The following applies: mice, 0.5 mpk; for Total Flux Liver / Total Flux Lung / Total Flux Spleen: intravenous; for Flux in the spleen: i.v., in words. An outline of the steps: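 LNP-formulated mRNA given IV to mice (n=3) at 0.5 mpk; at 6 h, bioluminescence imaged ex vivo 15 min after IP D-luciferin (15 mg/mL, 200 μL), organs imaged within 25 min. Values are total flux by region of interest.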

Data set [5] is described as follows: Particle size and polydispersity index of nanoparticle compositions (Zetasizer Nano ZS). Type of data set: physicochemical. The following applies: Table 1A; for Size (nm): lipid:DSPC:cholesterol:PEG-DMG 50:10:38.5:1.5 mol %. The method, boiled down:
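Values are size and PDI readings from a Zetasizer Nano ZS. Measurements are taken in 1×PBS; zeta potential, by contrast, uses 15 mM PBS.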

In the case of `CCCCCCCCC(CCCCCCCC)OC(=O)CCCCCCCN(CCO)CCCCCC(=O)OC1CCC(CCCCC)CC1` (stereo not shown) [Compound 68, Heptadecan-9-yl 8-((2-hydroxyethyl)(6-oxo-6-((4-pentylcyclohexyl)oxy)hexyl)amino)octanoate], in data set [1], the pKa turned out to be 6.69. For the same compound, in the data set with luciferase (Luc) mRNA [2], the “Fold increase in total body Luc Flux relative to MC3 at 6 h” value worked out at 3.68, the “Total Flux 3 hours” value was 5.22E+10, the “Total Flux 6 hours” value came to 8.16E+10 and the “Total Flux 24 hours” value came out at 2.15E+09. The “EE (%)” value in data set [3] is 97.7%. In the data set with luciferase (Luc) mRNA [4], the “Total Flux Liver” value is 8.42E+09, the “Total Flux Lung” value was found to be 3.98E+07 and the “Total Flux Spleen” value was determined as 6.69E+07. Also, in data set [5], the PDI is on record as 0.14 and the “Size (nm)” value was determined as 76.8 nm.
`CCCCCCCCCOC(=O)CCCCCCCN(CCO)CCCCCCCOP(=O)(OCCCCCCCC)OCCCCCCCC` [Compound 131, Nonyl 8-((7-((bis(octyloxy)phosphoryl)oxy)heptyl)(2-hydroxyethyl)amino)octanoate]: the pKa in data set [1] is 7.76. In the data set with luciferase (Luc) mRNA [2], the “6 h Lipid/MC3 Avg. Luc Expression” value turned out to be 1.05, the “Fold increase AUC Lipid/MC3” value was determined as 1.13, the “AUC (h * p/s)” value was 9.29E+10 h * p/s and the “Total Flux 3 hours” value was 6.97E+09. In the data set with luciferase (Luc) mRNA [2], the “Total Flux 6 hours” value was 7.64E+09 and the “Total Flux 24 hours” value is 2.47E+08. Besides, the “EE (%)” value in data set [3] was 75.44%. Also, in the data set with luciferase (Luc) mRNA [4], the “Total Flux Liver” value is given as 3.52E+08, the “Total Flux Lung” value is listed as 1.45E+07 and the “Total Flux Spleen” value is recorded as 8.32E+08. Besides, in data set [5], the PDI came out at 0.095 and the “Size (nm)” value is reported as 167.9 nm.
Consider `CCCCCCCC/C=C\CCCCCCCCN(CCO)CCCCCCCC(=O)OC(CCCCCCCC)CCCCCCCC` [Compound 31, heptadecan-9-yl (Z)-8-((2-hydroxyethyl)(octadec-9-en-1-yl)amino) octanoate], for which the pKa in data set [1] came out at 6.64. In the data set on luciferase (Luc) mRNA [2], the “Fold increase in total body Luc Flux relative to MC3 at 6 h” value is 1.21, the “Total Flux 3 hours” value was 4.19E+10, the “Total Flux 6 hours” value is 5.31E+10 and the “Total Flux 24 hours” value was 1.68E+09. Moreover, the “EE (%)” value in data set [3] was found to be 95.11%. Further, in the data set with luciferase (Luc) mRNA [4], the “Total Flux Liver” value is given as 5.17E+09, the “Total Flux Lung” value came to 7.55E+06 and the “Total Flux Spleen” value was found to be 9.42E+07. In data set [5], the PDI came out at 0.15 and the “Size (nm)” value stood at 73.9 nm.
`CCCCCCCCCOC(=O)CCCCCCCN(CCO)CCCCCCCCCOC(=O)C(CCCCCC)CCCCCCCC` (stereo not shown) [Compound 134, 9-((2-Hydroxyethyl)(8-(nonyloxy)-8-oxooctyl)amino)nonyl 2-hexyldecanoate]: in data set [1], the pKa turned out to be 6.66. In the data set with luciferase (Luc) mRNA [2], the “6 h Lipid/MC3 Avg. Luc Expression” value was 3.99, the “Fold increase AUC Lipid/MC3” value was 4.16, the “AUC (h * p/s)” value was 3.43E+11 h * p/s and the “Total Flux 3 hours” value was determined as 2.01E+10. Besides, in the data set on luciferase (Luc) mRNA [2], the “Total Flux 6 hours” value amounted to 2.91E+10 and the “Total Flux 24 hours” value amounted to 8.00E+08. Besides, the “EE (%)” value in data set [3] stood at 94.62%. For the same compound, in the data set with luciferase (Luc) mRNA [4], the “Total Flux Liver” value is on record as 1.73E+09, the “Total Flux Lung” value is 2.82E+06 and the “Total Flux Spleen” value was 1.85E+07. Besides, in data set [5], the PDI is 0.110 and the “Size (nm)” value is recorded as 85.6 nm.
In the case of `CCCCCCCCCOC(=O)CCCCCCCN(CCO)CCCCCCCC(=O)OC1CCCCCCCCCCCCCC1` [Compound 81, Cyclopentadecyl 8-((2-hydroxyethyl)(8-(nonyloxy)-8-oxooctyl)amino)octanoate], the pKa in data set [1] came to 7.14. In the data set with luciferase (Luc) mRNA [2], the “Total Flux 3 hours” value is 7.87E+09, the “Total Flux 6 hours” value came to 9.96E+09 and the “Total Flux 24 hours” value turned out to be 5.13E+08. The “EE (%)” value in data set [3] was 95.4%. Also, in the data set with luciferase (Luc) mRNA [4], the “Total Flux Liver” value came to 2.74E+08, the “Total Flux Lung” value is recorded as 6.23E+06 and the “Total Flux Spleen” value is given as 4.49E+07. For the same compound, in data set [5], the PDI is 0.14 and the “Size (nm)” value was 99.2 nm.
On to `CCCCCCCCCOC(=O)CCCCCCCN(CCCCCCCC(=O)OC(CCCCCCCC)CCCCCCCC)CCN1CCN(C)CC1` [Compound 101, Heptadecan-9-yl 8-((2-(4-methylpiperazin-1-yl)ethyl)(8-(nonyloxy)-8-oxooctyl)amino)octanoate], for which, in data set [1], the pKa is listed as 7.27. Further, in the data set with luciferase (Luc) mRNA [2], the “6 h Lipid/MC3 Avg. Luc Expression” value is given as 0.019, the “Fold increase AUC Lipid/MC3” value was found to be 0.022, the “AUC (h * p/s)” value came out at 1.8E+09 h * p/s and the “Total Flux 3 hours” value amounted to 1.89E+08. In the data set on luciferase (Luc) mRNA [2], the “Total Flux 6 hours” value stood at 1.41E+08 and the “Total Flux 24 hours” value is on record as 3.64E+06. The “EE (%)” value in data set [3] is 98.96%. In the data set with luciferase (Luc) mRNA [4], the “Total Flux Liver” value turned out to be 1.27E+07, the “Total Flux Lung” value is listed as 1.77E+05 and the “Total Flux Spleen” value is reported as 5.60E+06. Moreover, in data set [5], the PDI is reported as 0.230 and the “Size (nm)” value came to 91.7 nm.
In the case of `CCCCCCCCCCCOC(=O)CCCCCN(CCO)CCCCCCCC(=O)N(CCCCCCCC)CCCCCCCC` [Compound 129, Undecyl 6-((8-(dioctylamino)-8-oxooctyl)(2-hydroxyethyl)amino)hexanoate], the pKa in data set [1] is 7.3. For the same compound, in the data set on luciferase (Luc) mRNA [2], the “Fold increase in total body Luc Flux relative to MC3 at 6 h” value was 0.203, the “Total Flux 3 hours” value turned out to be 5.97E+09, the “Total Flux 6 hours” value is reported as 4.51E+09 and the “Total Flux 24 hours” value was 2.22E+08. The “EE (%)” value in data set [3] turned out to be 77.2%. For the same compound, in the data set on luciferase (Luc) mRNA [4], the “Flux in the spleen” value is “highest”, the “Total Flux Liver” value was 6.65E+08, the “Total Flux Lung” value stood at 9.89E+06 and the “Total Flux Spleen” value is 5.09E+08. Besides, in data set [5], the PDI stood at 0.19 and the “Size (nm)” value stood at 86.3 nm.
As for `CCCCCCCCCOC(=O)CCCCCCCN(CCO)CCCCCCCC(=O)OC(C)CCCCCCCC` (stereo not shown) [Compound 36, decan-2-yl 8-((2-hydroxyethyl)(8-(nonyloxy)-8-oxooctyl)amino) octanoate], the pKa in data set [1] was found to be 7.38. Further, in the data set with luciferase (Luc) mRNA [2], the “Fold increase in total body Luc Flux relative to MC3 at 6 h” value turned out to be 0.004, the “Total Flux 3 hours” value is reported as 6.97E+07, the “Total Flux 6 hours” value was 1.72E+08 and the “Total Flux 24 hours” value is on record as 4.44E+05. For the same compound, in data set [3], the “EE (%)” value stood at 81.45%. In the data set with luciferase (Luc) mRNA [4], the “Total Flux Liver” value is recorded as 2.65E+07, the “Total Flux Lung” value amounted to 5.82E+05 and the “Total Flux Spleen” value came out at 6.14E+07. Also, in data set [5], the PDI came to 0.17 and the “Size (nm)” value came to 163.5 nm.
With `CCCCCCCCC(C)OC(=O)CCCCCCCN(CCO)CCCCCCCC(=O)N(CCCCCCCC)CCCCCCCC` (stereo not shown) [Compound 130, Decan-2-yl 8-((8-(dioctylamino)-8-oxooctyl)(2-hydroxyethyl)amino)octanoate], the pKa in data set [1] is listed as 6.83. In the data set on luciferase (Luc) mRNA [2], the “Fold increase in total body Luc Flux relative to MC3 at 6 h” value came to 4.02, the “Total Flux 3 hours” value is recorded as 6.26E+10, the “Total Flux 6 hours” value is recorded as 8.92E+10 and the “Total Flux 24 hours” value turned out to be 1.08E+09. In addition, in data set [3], the “EE (%)” value was determined as 97%. In the data set on luciferase (Luc) mRNA [4], the “Flux in the spleen” value was “highest”, the “Total Flux Liver” value is listed as 8.17E+09, the “Total Flux Lung” value was 5.88E+07 and the “Total Flux Spleen” value was found to be 1.35E+09. Besides, in data set [5], the PDI turned out to be 0.13 and the “Size (nm)” value was 107.1 nm.
